Data: paper PMC11876601 (Molecular Systems Biology, 2025)
Like-named read-outs stand apart in the source and are kept apart here.

Tests used:
IKBKE = test system: IKBKE; design: method as in Klaeger et al. (2017); details: lysate 4 cell line mix (Colo205, K-562, MV-4-11, and SK-N-BE(2)), Kinobeads y, ref Klaeger et al. (2017); cited from earlier work
RASSF5 = test system: RASSF5; design: method as in Klaeger et al. (2017); details: RASSF5, 4 cell line mix lysate, Kinobeads y, ref Klaeger et al. (2017); cited from earlier work
TBKBP1 = details: TBKBP1, 5 cell line mix lysate, Kinobeads ε, ref Reinecke et al. (2023), cited from earlier work
RPS6KA1 = test system: RPS6KA1; design: method as in Reinecke et al. (2023); details: RPS6KA1, 5 cell line mix lysate, Kinobeads ε, ref Reinecke et al. (2023), cited from earlier work
TAOK1 = test system: TAOK1; design: method as in Reinecke et al. (2023); details: TAOK1, 5 cell line mix lysate, Kinobeads ε, ref Reinecke et al. (2023), cited from earlier work
MAP4K3 = test system: MAP4K3; design: method as in Reinecke et al. (2023); details: MAP4K3, 5 cell line mix lysate, Kinobeads ε, ref Reinecke et al. (2023), cited from earlier work
JAK2 = test system: JAK2; design: method as in Reinecke et al. (2023); details: JAK2, 5 cell line mix lysate, Kinobeads ε, ref Reinecke et al. (2023), cited from earlier work
Capan-1 cells = experiment: Drug combination viability screen (ATPlite, 72 h); format: cell-based, human; design: AUC: unit not given beside the values; Reponse: unit not given here; details: for EC50: Homo sapiens, CAPAN-1;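 on AUC: area under vehicle-normalized viability curve scaled 0 to 100 percent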;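 on Curve bottom: fraction of vehicle control viability from four-parameter log-logistic fit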
Protocol: (§1) Cell viability was assessed by measuring ATP levels to indicate metabolic activity.
(§2) Afterward, small amounts were transferred to 384-well intermediate plates (Greiner Bio-One GmbH, Germany). […] For drug combination screening, 1000 to 5000 cells were seeded into 384-well plates (CulturPlate™, Perkin Elmer, MA, USA) using a Multidrop™ Combi Reagent Dispenser (Thermo Scientific, MA, USA) in 50 µl medium per well 24 h prior to drug treatment (seeding densities see Appendix Table S1). […] The final DMSO concentration in each well was 0.2%. […] Eight wells per plate without library drug served as negative controls, and sixteen wells per plate containing 5 µM Staurosporine served as positive controls. Control plates not containing any drug were used to correct for incubation effects, and data quality was assessed by calculation of Z-prime of positive and negative controls according to1 Z-prime=1−3SDpos+3SDneg/[…] where SD is the standard deviation. […] Dose–response curves from the experimental and hypothetical data were compared, and shifts in AUC were used to describe combination effects (AUC∆ = AUChypothetical − AUCexperimental). […] Only combinations with R^2 > 0.8 in both conditions were considered in the synergy analysis.

Dan-G cells = experiment: Drug combination viability screen (ATPlite, 72 h); format: cell-based, human; design: AUC: unit not given beside the values; Reponse: unit not given here; details: for EC50: Homo sapiens;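 on AUC: area under vehicle-normalized viability curve scaled 0 to 100 percent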;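 on Curve bottom: fraction of vehicle control viability from four-parameter log-logistic fit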
Protocol: as §1, §2

FAMPAC cells = experiment: Drug combination viability screen (ATPlite, 72 h); format: cell-based, human; design: AUC: unit not given beside the values; Reponse: unit not given here; details: for EC50: Homo sapiens;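 on AUC: area under vehicle-normalized viability curve scaled 0 to 100 percent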;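 on Curve bottom: fraction of vehicle control viability from four-parameter log-logistic fit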
Protocol: as §1, §2

**Q.** Which EC50 (IKBKE) does the source give for `C[C@]12O[C@H](C[C@]1(O)CO)n1c3ccccc3c3c4c(c5c6ccccc6n2c5c31)CNC4=O` [Lestaurtinib] here?
**A.** 1030 nM

**Q.** And the EC50 (RASSF5)?
**A.** 73 nM

**Q.** With `COc1cc(N2CCC(N3CCN(C)CC3)CC2)ccc1Nc1ncc(Cl)c(Nc2ccccc2P(C)(C)=O)n1` [Brigatinib] as the compound, how does the EC50 (TBKBP1) read?
**A.** 940 nM

**Q.** What about the pKDapp (TBKBP1) of the same compound?
**A.** 6.13

**Q.** What about the Kd (TBKBP1; read-out: KDapp) of the same compound?
**A.** 746 nM

**Q.** What about the EC50 (RPS6KA1) of the same compound?
**A.** 376 nM

**Q.** And the pKDapp (RPS6KA1)?
**A.** 6.55

**Q.** And the Kd (RPS6KA1; read-out: KDapp)?
**A.** 283 nM

**Q.** What about the EC50 (TAOK1) of the same compound?
**A.** 847 nM

**Q.** And the pKDapp (TAOK1)?
**A.** 6.25

**Q.** And the Kd (TAOK1; read-out: KDapp)?
**A.** 563 nM

**Q.** What about the EC50 (MAP4K3) of the same compound?
**A.** 1160 nM

**Q.** What about the pKDapp (MAP4K3) of the same compound?
**A.** 6.12

**Q.** And the Kd (MAP4K3; read-out: KDapp)?
**A.** 759 nM

**Q.** And the EC50 (JAK2)?
**A.** 4340 nM

**Q.** And the pKDapp (JAK2)?
**A.** 5.46

**Q.** What about the Kd (JAK2; read-out: KDapp) of the same compound?
**A.** 3470 nM

**Q.** Which results are given for `Nc1ccn([C@@H]2O[C@H](CO)[C@@H](O)C2(F)F)c(=O)n1` [GEM, Gemcitabine]?
**A.** Reponse (Capan-1 cells; Capan-1, R1, 13.72 nM): 1419520; Reponse (Capan-1 cells; Capan-1, R1, 41.15 nM): 1052200; Reponse (Capan-1 cells; Capan-1, R1, […] nM): 1039880; Reponse (Capan-1 cells; Capan-1, R1, 370.37 nM): 891520; Reponse (Capan-1 cells; Capan-1, R1, 1111.11 nM): 819880; Reponse (Capan-1 cells; Capan-1, R1, 3333.33 nM): 826400; Reponse (Capan-1 cells; Capan-1, R1, 10000 nM): 882520; Reponse (Capan-1 cells; Capan-1, R2, 13.72 nM): 1725080; Reponse (Capan-1 cells; Capan-1, R2, 41.15 nM): 1554080; Reponse (Capan-1 cells; Capan-1, R2, […] nM): 1198840; Reponse (Capan-1 cells; Capan-1, R2, 370.37 nM): 1201400; Reponse (Capan-1 cells; Capan-1, R2, 1111.11 nM): 991280; Reponse (Capan-1 cells; Capan-1, R2, 3333.33 nM): 798760; Reponse (Capan-1 cells; Capan-1, R2, 10000 nM): 1054200; Curve bottom (Capan-1 cells; Capan-1, GEM curve fit): 0.16; Curve effect size (Capan-1 cells; Capan-1, GEM curve fit): 0.84; Curve slope (Capan-1 cells; Capan-1, GEM curve fit): 1.86; Curve top (Capan-1 cells; Capan-1, GEM curve fit): 1.03; AUC (Capan-1 cells; Capan-1, GEM curve fit, in %): 31.71; EC50 (Capan-1 cells; read-out: EC50): 1.26 nM; EC50 (Capan-1 cells; read-out: pEC50 (converted)): 1.26 nM; Reponse (Dan-G cells; Dan-G, R1, 13.72 nM): 414760; Reponse (Dan-G cells; Dan-G, R1, 41.15 nM): 446720; Reponse (Dan-G cells; Dan-G, R1, […] nM): 403560; Reponse (Dan-G cells; Dan-G, R1, 370.37 nM): 418200; Reponse (Dan-G cells; Dan-G, R1, 1111.11 nM): 322600; Reponse (Dan-G cells; Dan-G, R1, 3333.33 nM): 330080; Reponse (Dan-G cells; Dan-G, R1, 10000 nM): 365160; Reponse (Dan-G cells; Dan-G, R2, 13.72 nM): 688800; Reponse (Dan-G cells; Dan-G, R2, 41.15 nM): 616960; Reponse (Dan-G cells; Dan-G, R2, […] nM): 613120; Reponse (Dan-G cells; Dan-G, R2, 370.37 nM): 664240; Reponse (Dan-G cells; Dan-G, R2, 1111.11 nM): 563000; Reponse (Dan-G cells; Dan-G, R2, 3333.33 nM): 536360; Reponse (Dan-G cells; Dan-G, R2, 10000 nM): 535080; Curve bottom (Dan-G cells; Dan-G, GEM curve fit): 0.11; Curve effect size (Dan-G cells; Dan-G, GEM curve fit): 0.89; Curve slope (Dan-G cells; Dan-G, GEM curve fit): 3.23; Curve top (Dan-G cells; Dan-G, GEM curve fit): 0.99; AUC (Dan-G cells; Dan-G, GEM curve fit, in %): 25.98; EC50 (Dan-G cells; read-out: EC50): 1.1 nM; EC50 (Dan-G cells; read-out: pEC50 (converted)): 1.1 nM; Reponse (FAMPAC cells; FAMPAC, R1, 13.72 nM): 385920; Reponse (FAMPAC cells; FAMPAC, R1, 41.15 nM): 215680; Reponse (FAMPAC cells; FAMPAC, R1, […] nM): 157840; Reponse (FAMPAC cells; FAMPAC, R1, 370.37 nM): 175320; Reponse (FAMPAC cells; FAMPAC, R1, 1111.11 nM): 225320; Reponse (FAMPAC cells; FAMPAC, R1, 3333.33 nM): 238760; Reponse (FAMPAC cells; FAMPAC, R1, 10000 nM): 195520; Reponse (FAMPAC cells; FAMPAC, R2, 13.72 nM): 606360; Reponse (FAMPAC cells; FAMPAC, R2, 41.15 nM): 377000; Reponse (FAMPAC cells; FAMPAC, R2, […] nM): 333400; Reponse (FAMPAC cells; FAMPAC, R2, 370.37 nM): 317560; Reponse (FAMPAC cells; FAMPAC, R2, 1111.11 nM): 328240; Reponse (FAMPAC cells; FAMPAC, R2, 3333.33 nM): 349400; Reponse (FAMPAC cells; FAMPAC, R2, 10000 nM): 314920; Curve bottom (FAMPAC cells; FAMPAC, GEM curve fit): 0.05; Curve effect size (FAMPAC cells; FAMPAC, GEM curve fit): 0.95; Curve slope (FAMPAC cells; FAMPAC, GEM curve fit): 2.01; Curve top (FAMPAC cells; FAMPAC, GEM curve fit): 0.99; AUC (FAMPAC cells; FAMPAC, GEM curve fit, in %): 25.43; EC50 (FAMPAC cells; read-out: EC50): 1.71 nM; EC50 (FAMPAC cells; read-out: pEC50 (converted)): 1.7 nM
